What was measured:
Type in all cases: cell-based
[1] = test system: lactic acid bacteria (LAB); test: Susceptibility of lactic acid bacteria cocktail to sodium percarbonate in diluted molasses (Example 1); settings: for LAB level after treatment: approx. 2 hours, 32° C., molasses
Protocol: In this example, the susceptibility of yeast and lactic acid bacteria to sodium percarbonate was determined in molasses. Molasses was prepared by diluting molasses (B&G Foods, Inc., Roseland, N.J.) 1 part to 3.1 parts water to mimic conditions used for ethanol production based on a molasses feedstock (common in Latin America and Asia). The diluted molasses was autoclaved at 121° C. for 15 minutes to sterilize prior to use in the experiment. Cultures of lactic acid bacteria (LAB) (Lactobacillus plantarum, Lactobacillus brevis, Lactobacillus fermentum, and Lactobacillus paracasei) were prepared by inoculating MRS broth (available from Difco Laboratories Inc., Sparks, Md.) and incubating overnight at 32° C. with agitation. The bacteria were selected because they had previously been isolated from contaminated ethanol fermentation processes. Cultures of each organism were combined to create a bacterial cocktail and diluted in molasses to give 1.0×10^7, 1.0×10^6, and 1.0×10^5 bacteria/ml, or commonly expressed as colony forming units per milliliter or CFU/ml). Sodium percarbonate (Alfa Aesar, Ward Hill, Mass.) was prepared as a 2% solution immediately prior to use. Percarbonate was added to tubes containing 25 ml of inoculated molasses to give concentrations of 0, 100, 250, 500 and 1000 ppm. Tubes were incubated at 32° C. with agitation. After approximately 2 hours, bacterial levels present in each tube were enumerated by plating decimal dilutions of molasses onto the surface of MRS agar plates (Difco Laboratories Inc., Sparks, Md.). Plates were incubated overnight at 32° C.

[2] = test system: lactic acid bacteria (LAB); test: Inactivation of LAB in molasses at pH 4.2 and 5.4 (Examples 2 and 3); settings: for reduction in the amount of LAB: 2 hours; for reduction in the levels of LAB: 2-hour
Protocol: Molasses (B&G Foods, Inc., Roseland, N.J.) was diluted 1 to 3.1 with water and sterilized as in Example 1. The prepared molasses was then divided into two lots and pH-adjusted using sulfuric acid to approximately pH 4.2 and 5.4, respectively. Cultures of LAB were prepared as in Example 1 and inoculated into the molasses to give approximately 1×10^6 CFU/ml. Sodium percarbonate (Alfa Aesar, Ward Hill, Mass.) was added to give 250, 500, and 750 ppm. […] Levels of LAB were enumerated by dilution and plating onto the surface of MRS agar followed by incubation at 32° C. LAB were enumerated at approximately 2 and 24 hours after the addition of sodium percarbonate.
Molasses was prepared as above and adjusted to pH 4.2 and 5.4 using sulfuric acid. Cultures of lactic acid bacteria were prepared as indicated in Example 1 and inoculated into the molasses to give approximately 10E6 CFU/ml. Levels of bacteria were confirmed by plating serial dilutions of the inoculated molasses onto the surface of MRS agar plates as in Example 1. Calcium peroxide was added at the levels indicated. Bacterial levels were enumerated at 2 and 24 hours following addition as described above.

Ethanol Red = test: Susceptibility of fermenting yeast to sodium percarbonate in diluted molasses (Example 1, second part); settings: for yeast level after treatment: two hours, molasses
Protocol: (§1) In a second part of this Example 1, the yeasts strains Ethanol Red, FermPro S, and SuperStart (commonly used as fermenting yeasts in the ethanol industry) were cultured overnight in Yeast Peptone Dextrose broth (YPD, Difco Laboratories Inc., Sparks, Md.). Individual strains were then suspended in dilute molasses as above to give approximately 1×10^6 CFU/ml and treated with various concentration of percarbonate for two hours as described above.

FermPro S = test: as above; settings: for yeast level after treatment: two hours, molasses
Protocol: as §1

SuperStart = test: as above; settings: for yeast level after treatment: two hours, molasses
Protocol: as §1

[3] = test system: lactic acid bacteria (LAB); test: Inactivation of LAB in dilute molasses at pH 5.0 in the presence of yeast Ethanol Red (Example 5); settings: for Log CFU/mL of LAB at hour indicated: 32° C.
Protocol: Cultures of lactic acid bacteria (LAB) were prepared as in Example 1 above. Molasses was diluted 1:3.1 with water as in previous examples. The fermenting yeast Ethanol Red was cultured as in example 1. Populations of lactic acid bacteria and yeasts were determined by dilution plating on MRS agar and YPD agar, respectively. Overnight cultures of LAB were mixed to prepare a bacterial cocktail and inoculated into molasses (diluted 1:3.1 with water) adjusted to pH 5.0 to give approximately 6.11 Log CFU/ml. Cultures of yeasts were added to each tube at a concentration of approximately 6.80 Log CFU/ml. […] The amount of UHP added was 1450 ppm. The amount of percarbonate added was 1812 ppm. Tubes were then incubated at 32° C. with agitation. […] Amphotericin inhibits the growth of yeast, facilitating enumeration of bacteria only.

[4] = 1.0×10^6 CFU/ml, 500 ppm percarbonate

O=C([O-])[O-].O=C([O-])[O-].OO.OO.OO.[Na+].[Na+].[Na+].[Na+] [Sodium percarbonate, sodium percarbonate]
log reductions of LAB ([1]; 1000 ppm percarbonate): > 6 log | LAB level (below detectable limit of the assay) ([1]; 1000 ppm percarbonate, all of the tested levels of LAB): < 10 CFU/ml | reduction in the level of bacteria ([1]; initial LAB 1.0×10^6 or 1.0×10^7 CFU/ml, 500 ppm percarbonate): 2 log | LAB level after treatment ([1]; inoculum 1.0 × 10^5 CFU/ml, 100 ppm percarbonate): 8.90 × 10^4 CFU/ml | LAB level after treatment ([1]; inoculum 1.0 × 10^5 CFU/ml, 250 ppm percarbonate): 1.80 × 10^3 CFU/ml | LAB level after treatment ([1]; inoculum 1.0 × 10^5 CFU/ml, 500 ppm percarbonate): 1.70 × 10^2 CFU/ml | LAB level after treatment ([1]; inoculum 1.0 × 10^5 CFU/ml, 1000 ppm percarbonate): <10 CFU/ml | LAB level after treatment ([1]; inoculum 1.0 × 10^6 CFU/ml, 100 ppm percarbonate): 8.50 × 10^5 CFU/ml | LAB level after treatment ([1]; inoculum 1.0 × 10^6 CFU/ml, 250 ppm percarbonate): 1.55 × 10^5 CFU/ml | LAB level after treatment ([1]; inoculum 1.0 × 10^6 CFU/ml, 500 ppm percarbonate): 1.17 × 10^4 CFU/ml | LAB level after treatment ([1]; inoculum 1.0 × 10^6 CFU/ml, 1000 ppm percarbonate): <10 CFU/ml | LAB level after treatment ([1]; inoculum 1.0 × 10^7 CFU/ml, 100 ppm percarbonate): 6.90 × 10^6 CFU/ml | LAB level after treatment ([1]; inoculum 1.0 × 10^7 CFU/ml, 250 ppm percarbonate): 1.68 × 10^6 CFU/ml | LAB level after treatment ([1]; inoculum 1.0 × 10^7 CFU/ml, 500 ppm percarbonate): 1.20 × 10^5 CFU/ml | LAB level after treatment ([1]; inoculum 1.0 × 10^7 CFU/ml, 1000 ppm percarbonate): <10 CFU/ml | reduction in the level of bacteria ([1]; starting LAB 1.0×10^5 CFU/ml, 500 ppm percarbonate, two hours): ~3 log | CFU/ml LAB at hour indicated ([2]; molasses at pH 4.2, 250 ppm (69 ppm as H2O2), hour 2): 7.85 × 10^5 CFU/ml | CFU/ml LAB at hour indicated ([2]; molasses at pH 4.2, 250 ppm (69 ppm as H2O2), hour 24): 8.75 × 10^4 CFU/ml | CFU/ml LAB at hour indicated ([2]; molasses at pH 4.2, 500 ppm (138 ppm as H2O2), hour 2): 8.40 × 10^5 CFU/ml | CFU/ml LAB at hour indicated ([2]; molasses at pH 4.2, 500 ppm (138 ppm as H2O2), hour 24): 7.90 × 10^6 CFU/ml | CFU/ml LAB at hour indicated ([2]; molasses at pH 4.2, 750 ppm (207 ppm as H2O2), hour 2): 3.10 × 10^5 CFU/ml | CFU/ml LAB at hour indicated ([2]; molasses at pH 4.2, 750 ppm (207 ppm as H2O2), hour 24): 1.50 × 10^3 CFU/ml | CFU/ml LAB at hour indicated ([2]; molasses at pH 5.4, 250 ppm (69 ppm as H2O2), hour 2): 3.95 × 10^5 CFU/ml | CFU/ml LAB at hour indicated ([2]; molasses at pH 5.4, 250 ppm (69 ppm as H2O2), hour 24): 7.50 × 10^1 CFU/ml | CFU/ml LAB at hour indicated ([2]; molasses at pH 5.4, 500 ppm (138 ppm as H2O2), hour 2): 3.85 × 10^4 CFU/ml | CFU/ml LAB at hour indicated ([2]; molasses at pH 5.4, 500 ppm (138 ppm as H2O2), hour 24): 1.50 × 10^1 CFU/ml | CFU/ml LAB at hour indicated ([2]; molasses at pH 5.4, 750 ppm (207 ppm as H2O2), hour 2): 2.80 × 10^4 CFU/ml | CFU/ml LAB at hour indicated ([2]; molasses at pH 5.4, 750 ppm (207 ppm as H2O2), hour 24): <10 CFU/ml | CFU/ml LAB at hour indicated ([2]; molasses at pH 5.4, 750 ppm (207 ppm as H2O2), hour 24, listed as sodium percarbonate): below the detection limit | reduction in the amount of LAB ([2]; molasses pH 4.2, 250 ppm sodium percarbonate): approximately 1 log | reduction in the amount of LAB ([2]; molasses pH 4.2, 500 ppm sodium percarbonate): approximately 1 log | reduction in the amount of LAB ([2]; molasses pH 4.2, 750 ppm sodium percarbonate): approximately 1 log | reduction in the number of LAB ([2]; molasses pH 4.2, 750 ppm sodium percarbonate, 24 hour): more than 3 log units | reduction in the level of LAB ([2]; molasses pH 5.4, 250 ppm sodium percarbonate, 24-hour): ~6 log | reduction in the levels of LAB ([2]; molasses pH 5.4, 500 ppm sodium percarbonate): approximately 2 log | reduction in the levels of LAB ([2]; molasses pH 5.4, 750 ppm sodium percarbonate): approximately 2 log | reduction of yeast (Ethanol Red; [4]): < 1 log | yeast level after treatment (Ethanol Red; 100 ppm percarbonate): 7.90 × 10^6 CFU/ml | yeast level after treatment (Ethanol Red; 250 ppm percarbonate): 5.00 × 10^6 CFU/ml | yeast level after treatment (Ethanol Red; 500 ppm percarbonate): 1.99 × 10^6 CFU/ml | reduction of yeast (Ethanol Red; 1000 ppm percarbonate): approximately 1 log | yeast level after treatment (Ethanol Red; 1000 ppm percarbonate): 4.90 × 10^5 CFU/ml | reduction of yeast (FermPro S; [4]): < 1 log | yeast level after treatment (FermPro S; 100 ppm percarbonate): 7.30 × 10^6 CFU/ml | yeast level after treatment (FermPro S; 250 ppm percarbonate): 3.00 × 10^6 CFU/ml | yeast level after treatment (FermPro S; 500 ppm percarbonate): 1.43 × 10^6 CFU/ml | reduction of yeast (FermPro S; 1000 ppm percarbonate): approximately 1 log | yeast level after treatment (FermPro S; 1000 ppm percarbonate): 2.90 × 10^5 CFU/ml | reduction in the concentration of yeast (SuperStart; [4]): approximately 1 log | yeast level after treatment (SuperStart; 100 ppm percarbonate): 1.22 × 10^6 CFU/ml | yeast level after treatment (SuperStart; 250 ppm percarbonate): 3.80 × 10^5 CFU/ml | yeast level after treatment (SuperStart; 500 ppm percarbonate): 1.07 × 10^5 CFU/ml | yeast level after treatment (SuperStart; 1000 ppm percarbonate): 6.00 × 10^3 CFU/ml | reduction of the population of LAB ([3]; 500 ppm as H2O2, 2 hours of incubation at 32° C., in presence of yeast): ~5 log units | Log CFU/mL of LAB at hour indicated ([3]; 500 ppm as H2O2, hour 2, molasses pH 5.0, yeast approx. 6.80 Log CFU/ml): 1.95 Log CFU/mL | Log CFU/mL of LAB at hour indicated ([3]; 500 ppm as H2O2, hour 6, molasses pH 5.0, yeast approx. 6.80 Log CFU/ml, listed as percarbonate): <1 Log CFU/mL | Log CFU/mL of LAB at hour indicated ([3]; 500 ppm as H2O2, hour 6, molasses pH 5.0, yeast approx. 6.80 Log CFU/ml, listed as sodium percarbonate): below the detectable limit

Source: patent publication US8759051B2, “Control of contaminant microorganisms in fermentation processes with peroxygen-releasing compounds” (E I du Pont de Nemours and Company, priority 2010, dated 2014)
